The values that follow come from PMC11726150, “Pre‐ADMET studies of 5‐(3′,4′‐dihydroxyphenyl)‐γ‐valerolactone, the bioactive intestinal metabolite of proanthocyanidins” (Archiv Der Pharmazie, 2024).

The target of series [1] is T1, CYP1A2 (Homo sapiens, UniProt P05177).
T1 construct: purchased
T1 sequence (P05177 1-516): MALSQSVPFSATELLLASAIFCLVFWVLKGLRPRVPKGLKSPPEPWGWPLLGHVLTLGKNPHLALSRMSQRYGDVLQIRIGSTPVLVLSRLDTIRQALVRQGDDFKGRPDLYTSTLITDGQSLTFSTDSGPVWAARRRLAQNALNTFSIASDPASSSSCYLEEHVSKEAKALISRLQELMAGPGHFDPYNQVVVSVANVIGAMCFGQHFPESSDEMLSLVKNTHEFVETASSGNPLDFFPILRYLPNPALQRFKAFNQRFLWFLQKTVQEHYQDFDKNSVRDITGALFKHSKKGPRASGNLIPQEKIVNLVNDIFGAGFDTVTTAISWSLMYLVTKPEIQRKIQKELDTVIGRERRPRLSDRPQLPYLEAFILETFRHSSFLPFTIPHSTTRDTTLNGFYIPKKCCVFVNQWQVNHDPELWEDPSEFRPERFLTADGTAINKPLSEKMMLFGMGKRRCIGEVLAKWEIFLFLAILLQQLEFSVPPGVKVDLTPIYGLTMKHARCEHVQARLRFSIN
The series can be described thus: CYP inhibition assay. It counts as biochemical. As for the experimental part:
(§1) The inhibitory potential of VL toward the catalytic activity of CYP3A4 and CYP1A2 was investigated through CYP inhibition assays using high‐throughput CYP450 screening kits. Stock solutions of VL (10 mM in DMSO) and specific positive controls for each CYP isoform were serially diluted in methanol and reactions were performed in 96‐well plates according to the supplier's instructions. Briefly, 40 μL (×2.5) of test compound and 50 μL master premix were added to 96‐well plates. Plates were incubated for 10 min at room temperature to allow for sufficient interaction of the test compound and enzyme. Following incubation, 10 μL (×10) of enzyme‐specific substrates were added and plates were vortex‐mixed for 30 s. Further, fluorescence was measured at the specified excitation and emission wavelengths for each substrate as recommended per individual kit protocol. Ketoconazole (0.004, 0.01, 0.03, 0.11, 0.33, and 1 μM) and α‐naphthoflavone (0.004, 0.01, 0.03, 0.11, 0.33, and 1 μM) were used as positive controls for CYP3A4 and CYP1A2, respectively. IC50 values were obtained from concentration‐response curves generated by plotting the percentage of inhibition versus concentration.^[ [46] ^]

Series [2] concerns the target T2, CYP3A4 (Homo sapiens, UniProt P08684).
T2 construct: purchased
The series can be described thus: CYP inhibition assay. It is filed as biochemical. The settings on record: read-out: half‐maximal inhibitory concentration (IC50). How it is done: as §1

Series [3] deals with Caco2 monolayers. The series can be described thus: In vitro transport study across 21‐day Caco2 monolayers. It is filed as in vitro ADME, human. As for the experimental part:
Caco2 cells between passage numbers 42–50 and MDCK cells between passage numbers 21–26 were used for transport studies; the assay was conducted as reported by Volpe^[ [33] ^] with slight modifications. Transport experiments were performed in 12‐well Transwell plates. Caco2 cells were seeded at a density of 60,000 cells/cm^2 and grown for 21 days, with change of media every 3 days, while MDCK cells were seeded at a density of 70,000 cells/cm^2 and grown for 5 days, changing the medium daily. The physiological and morphological formation of a confluent monolayer was evaluated by measuring the TEER value: Caco2 monolayers became confluent 1 week after seeding with TEER values greater than 450 Ω/cm^2, while MDCK monolayers became confluent 24 h after seeding with TEER values greater than 90 Ω/cm^2. Phenol red and serum‐free DMEM/F12 medium was used as transport buffer. For bidirectional transport, VL (50 μM) and control compound (propranolol and paclitaxel, 10 μM) were added to the apical side to determine apical to basolateral transport (A–B; absorptive direction) and to the basal side to determine basolateral to apical transport (B–A; secretory direction). The volume of the apical and basolateral chambers was 0.5 and 1.5 mL, respectively. Aliquots of 120 μL were taken from the basolateral (for A–B transport) or the apical (for B–A transport) chamber at 30, 60, 90, and 120 min. An equal volume was replaced with a transport buffer at every time point. At the beginning and at the end of the experiment, an aliquot was also taken from the apical or basolateral chamber for analysis of the drug. To determine the integrity of monolayers, TEER values were measured before and after the experiment. In addition, at the end of the experiment cells were collected and lysed to evaluate the compound intake. Briefly, cells were washed twice with cold PBS and 200 µL of cold MeOH was added to detach and lysate the cells; subsequently, cells were collected into lo‐bind Eppendorf and sonicated in ice for 10 min, then centrifuged for 15 min at 4°C at 14,000 rpm (Eppendorf Centrifuge 5430 R). The supernatant was collected and used for further analysis.
The apparent permeability P app (cm/s) of compounds was calculated from the following equation (Equation 1), while P app (cm/s) of the metabolites was calculated from the equation (Equation 2): (1) Papp=dQ/dt×1/C×1/A.
Equation (1) for calculating P app (cm/s) of tested reference compounds. (2) Papp=Metabolic cleareance/A.
Equation (2) for calculating P app (cm/s) of compound metabolites.
with Metabolic cleareance=Rate of metabolism/C and where dQ/dt is the rate of transport, C is the initial concentration in the donor compartment, and A is the surface area of the filter. To quantify the rate of transport, cumulative amounts of test compounds were plotted against time (min).
Efflux ratio was calculated using the following equation (Equation 3)^[ [48] ^]: (3) Efflux ratio=Papp(B−A)/Papp(A−B).
Background: Passage across Caco-2 layers is used to estimate intestinal permeability.

Some results are limits rather than exact numbers.

T2 sequence (P08684 whole entry): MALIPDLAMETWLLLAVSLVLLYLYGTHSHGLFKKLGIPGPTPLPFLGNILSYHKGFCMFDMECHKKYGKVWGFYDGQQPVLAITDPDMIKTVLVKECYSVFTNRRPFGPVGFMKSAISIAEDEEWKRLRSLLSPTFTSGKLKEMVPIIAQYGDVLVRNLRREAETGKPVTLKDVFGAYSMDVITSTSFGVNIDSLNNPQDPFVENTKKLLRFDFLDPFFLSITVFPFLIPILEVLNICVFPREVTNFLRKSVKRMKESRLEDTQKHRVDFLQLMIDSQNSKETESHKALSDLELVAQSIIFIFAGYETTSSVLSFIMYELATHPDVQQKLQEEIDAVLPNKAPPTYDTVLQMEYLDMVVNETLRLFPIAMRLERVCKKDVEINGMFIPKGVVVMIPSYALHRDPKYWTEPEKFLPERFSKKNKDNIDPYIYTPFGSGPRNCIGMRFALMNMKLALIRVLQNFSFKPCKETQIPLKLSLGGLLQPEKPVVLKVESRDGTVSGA

As to `O=C1CCC(Cc2ccc(O)c(O)c2)O1` (stereo not shown) [VL, 5‐(3′,4′‐dihydroxyphenyl)‐γ‐valerolactone], the “inhibition of CYP1A2” value in series [1] is reported as “no inhibition effect”. The IC50 in series [2] was more than 25 µM. Further, in series [3] (Caco2, 50 µM, 120 min), the “VL in the donor compartment at the end of the experiment” value is given as “no longer detectable”. Besides, the “conversion of VL to sulfate” value in series [3] (after 30 min) is 100%.
